# According to PubChem BioAssay (NCI):
#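 Grown in 96-well plates, cells were treated for 48 hours with each compound at five concentrations. Insufficient inhibition: endpoint recorded as highest concentration tested. TGI is the concentration that stops growth completely.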
# How the values were obtained:
# Experiment in all cases: NCI tumour cell line growth inhibition, 48 h
# CAKI-1 renal = test system: CAKI-1 renal
# NCI-H522 lung = test system: NCI-H522 lung
# NCI-H226 lung = test system: NCI-H226 lung
# SF-268 CNS = test system: SF-268 CNS
# SNB-19 CNS = test system: SNB-19 CNS
# HCT-15 colon = test system: HCT-15 colon
# RXF 393 renal = test system: RXF 393 renal
# MDA-MB-231 breast = test system: MDA-MB-231 breast
# OVCAR-3 ovarian = test system: OVCAR-3 ovarian
# SF-295 CNS = test system: SF-295 CNS
# BT-549 breast = test system: BT-549 breast
# SK-MEL-28 melanoma = test system: SK-MEL-28 melanoma
# UACC-257 melanoma = test system: UACC-257 melanoma
# DU-145 prostate = test system: DU-145 prostate
# T-47D breast = test system: T-47D breast
# PC-3 prostate = test system: PC-3 prostate
# COLO 205 colon = test system: COLO 205 colon
# MDA-MB-435 = test system: MDA-MB-435
# A549 NSCLC = test system: A549 NSCLC
# CCRF-CEM leukemia = test system: CCRF-CEM leukemia
# U251 CNS = test system: U251 CNS
# LOX IMVI melanoma = test system: LOX IMVI melanoma
# EKVX NSCLC = test system: EKVX NSCLC
# MDA-N = test system: MDA-N
# HCC-2998 colon = test system: HCC-2998 colon
# OVCAR-8 ovarian = test system: OVCAR-8 ovarian
# K-562 leukemia = test system: K-562 leukemia
# NCI-H23 lung = test system: NCI-H23 lung
# OVCAR-4 ovarian = test system: OVCAR-4 ovarian
# TK-10 renal = test system: TK-10 renal
# MALME-3M melanoma = test system: MALME-3M melanoma
# KM12 colon = test system: KM12 colon
# SN12C renal = test system: SN12C renal
# SK-MEL-2 melanoma = test system: SK-MEL-2 melanoma
# ACHN renal = test system: ACHN renal
# OVCAR-5 ovarian = test system: OVCAR-5 ovarian
# IGROV1 ovarian = test system: IGROV1 ovarian
# HOP-62 NSCLC = test system: HOP-62 NSCLC
# SR leukemia = test system: SR leukemia
# SK-OV-3 ovarian = test system: SK-OV-3 ovarian
# SK-MEL-5 melanoma = test system: SK-MEL-5 melanoma
# UO-31 renal = test system: UO-31 renal
# SF-539 CNS = test system: SF-539 CNS
# MCF7 breast = test system: MCF7 breast
# SNB-75 CNS = test system: SNB-75 CNS
# HOP-92 NSCLC = test system: HOP-92 NSCLC
# HT29 colon = test system: HT29 colon
# SW-620 colon = test system: SW-620 colon
# A498 renal = test system: A498 renal
# NCI/ADR-RES ovarian = test system: NCI/ADR-RES ovarian
# UACC-62 melanoma = test system: UACC-62 melanoma
# M14 melanoma = test system: M14 melanoma
# HCT-116 colon = test system: HCT-116 colon
# NCI-H460 lung = test system: NCI-H460 lung
# 786-0 renal = test system: 786-0 renal
# MOLT-4 leukemia = test system: MOLT-4 leukemia
# HS 578T breast = test system: HS 578T breast
# RPMI-8226 leukemia = test system: RPMI-8226 leukemia
# HL-60(TB) leukemia = test system: HL-60(TB) leukemia
smiles,measurement,setting,value
Cc1c2c(Cl)c3c(c(Cl)c2c(C)c2c(Cl)c4c(c(Cl)c12)C(c1ccccc1)(c1ccccc1)C4(c1ccccc1)c1ccccc1)C(c1ccccc1)(c1ccccc1)C3(c1ccccc1)c1ccccc1,TGI,CAKI-1 renal,> 100 µM
same,TGI,NCI-H522 lung,> 100 µM
same,TGI,NCI-H226 lung,> 100 µM
same,TGI,SF-268 CNS,> 100 µM
same,TGI,SNB-19 CNS,> 100 µM
same,TGI,HCT-15 colon,> 100 µM
same,TGI,RXF 393 renal,> 100 µM
same,TGI,MDA-MB-231 breast,> 100 µM
same,TGI,OVCAR-3 ovarian,> 100 µM
same,TGI,SF-295 CNS,> 100 µM
same,TGI,BT-549 breast,> 100 µM
same,TGI,SK-MEL-28 melanoma,> 100 µM
same,TGI,UACC-257 melanoma,> 100 µM
same,TGI,DU-145 prostate,> 100 µM
same,TGI,T-47D breast,> 100 µM
same,TGI,PC-3 prostate,> 100 µM
same,TGI,COLO 205 colon,> 100 µM
same,TGI,MDA-MB-435,> 100 µM
same,TGI,A549 NSCLC,> 100 µM
same,TGI,CCRF-CEM leukemia,> 100 µM
same,TGI,U251 CNS,> 100 µM
same,TGI,LOX IMVI melanoma,> 100 µM
same,TGI,EKVX NSCLC,> 100 µM
same,TGI,MDA-N,> 100 µM
same,TGI,HCC-2998 colon,> 100 µM
same,TGI,OVCAR-8 ovarian,> 100 µM
same,TGI,K-562 leukemia,> 100 µM
same,TGI,NCI-H23 lung,> 100 µM
same,TGI,OVCAR-4 ovarian,> 100 µM
same,TGI,TK-10 renal,> 100 µM
same,TGI,MALME-3M melanoma,> 100 µM
same,TGI,KM12 colon,> 100 µM
same,TGI,SN12C renal,> 100 µM
same,TGI,SK-MEL-2 melanoma,> 100 µM
same,TGI,ACHN renal,> 100 µM
same,TGI,OVCAR-5 ovarian,> 100 µM
same,TGI,IGROV1 ovarian,> 100 µM
same,TGI,HOP-62 NSCLC,> 100 µM
same,TGI,SR leukemia,> 100 µM
same,TGI,SK-OV-3 ovarian,> 100 µM
same,TGI,SK-MEL-5 melanoma,> 100 µM
same,TGI,UO-31 renal,> 100 µM
same,TGI,SF-539 CNS,> 100 µM
same,TGI,MCF7 breast,> 100 µM
same,TGI,SNB-75 CNS,> 100 µM
same,TGI,HOP-92 NSCLC,> 100 µM
same,TGI,HT29 colon,> 100 µM
same,TGI,SW-620 colon,> 100 µM
same,TGI,A498 renal,> 100 µM
same,TGI,NCI/ADR-RES ovarian,> 100 µM
same,TGI,UACC-62 melanoma,> 100 µM
same,TGI,M14 melanoma,> 100 µM
same,TGI,HCT-116 colon,> 100 µM
same,TGI,NCI-H460 lung,> 100 µM
same,TGI,786-0 renal,> 100 µM
same,TGI,MOLT-4 leukemia,> 100 µM
Nc1c([N+](=O)[O-])cc2c3c(cccc13)CC2,TGI,CAKI-1 renal,> 100 µM
same,TGI,NCI-H522 lung,> 100 µM
same,TGI,NCI-H226 lung,> 100 µM
same,TGI,SF-268 CNS,> 100 µM
same,TGI,SNB-19 CNS,> 100 µM
same,TGI,HCT-15 colon,> 100 µM
same,TGI,RXF 393 renal,74.2 µM
same,TGI,MDA-MB-231 breast,> 100 µM
same,TGI,OVCAR-3 ovarian,> 100 µM
same,TGI,HS 578T breast,> 100 µM
same,TGI,SF-295 CNS,> 100 µM
same,TGI,BT-549 breast,> 100 µM
same,TGI,SK-MEL-28 melanoma,> 100 µM
same,TGI,UACC-257 melanoma,> 100 µM
same,TGI,RPMI-8226 leukemia,> 100 µM
same,TGI,DU-145 prostate,> 100 µM
same,TGI,T-47D breast,> 100 µM
same,TGI,PC-3 prostate,> 100 µM
same,TGI,COLO 205 colon,> 100 µM
same,TGI,MDA-MB-435,> 100 µM
same,TGI,A549 NSCLC,> 100 µM
same,TGI,CCRF-CEM leukemia,> 100 µM
same,TGI,U251 CNS,> 100 µM
same,TGI,LOX IMVI melanoma,> 100 µM
same,TGI,EKVX NSCLC,> 100 µM
same,TGI,MDA-N,> 100 µM
same,TGI,HCC-2998 colon,> 100 µM
same,TGI,OVCAR-8 ovarian,> 100 µM
same,TGI,K-562 leukemia,> 100 µM
same,TGI,NCI-H23 lung,> 100 µM
same,TGI,OVCAR-4 ovarian,> 100 µM
same,TGI,TK-10 renal,> 100 µM
same,TGI,KM12 colon,> 100 µM
same,TGI,SN12C renal,> 100 µM
same,TGI,SK-MEL-2 melanoma,> 100 µM
same,TGI,ACHN renal,> 100 µM
same,TGI,HL-60(TB) leukemia,> 100 µM
same,TGI,OVCAR-5 ovarian,> 100 µM
same,TGI,IGROV1 ovarian,> 100 µM
same,TGI,HOP-62 NSCLC,> 100 µM
same,TGI,SR leukemia,> 100 µM
same,TGI,SK-OV-3 ovarian,> 100 µM
same,TGI,SK-MEL-5 melanoma,> 100 µM
same,TGI,UO-31 renal,> 100 µM
same,TGI,SF-539 CNS,> 100 µM
same,TGI,SNB-75 CNS,> 100 µM
same,TGI,HOP-92 NSCLC,> 100 µM
same,TGI,HT29 colon,> 100 µM
same,TGI,SW-620 colon,> 100 µM
same,TGI,A498 renal,> 100 µM
same,TGI,NCI/ADR-RES ovarian,> 100 µM
same,TGI,UACC-62 melanoma,> 100 µM
same,TGI,M14 melanoma,> 100 µM
same,TGI,HCT-116 colon,> 100 µM
same,TGI,NCI-H460 lung,> 100 µM
same,TGI,786-0 renal,> 100 µM
same,TGI,MOLT-4 leukemia,> 100 µM
